Measured values published in patent publication US10307401B2, “Compositions and methods for treatment of prostate cancer” (priority 2016, dated 2019).

Key:
[1] = system: KLK3 mRNA in LNCaP/AR cells; assay: Gene expression analysis (qRT-PCR) in LNCaP/AR cells; assay type: cell-based; details: 10 μM; for agonist activity (KLK3 mRNA): androgen-depleted conditions
Experimental: (§1) LNCaP/AR and LREX′ cells were cultured for 72 hours after plating in phenol-red free RPMI 1640 (10% CT-FBS) in six well plates at 40,000 and 50,000 cells/mL, respectively. LNCaP/AR cells were treated with 10 μM ARE-1, bicalutamide (bic), or enzalutamide (enz, Aurum Pharmatech) for an additional 48, 2, and 2 hours, respectively, prior to treatment with 1 nM DHT or ethanol for 16 hours. LREX′ cells were treated with 10 μM ARE-1 for 16 hours prior to induction with 1 nM DHT or 100 nM dexamethasone (dex) for 8 hours. RNA extraction (RNEasy columns, Qiagen), cDNA generation (Transcriptor First Strand cDNA kit, Roche), and qRT-PCR (SYBR Green Master Mix, Applied Biosystems, ABI7300 instrument) were as described (10-12). Expression was normalized to β-glucuronidase.

[2] = system: KLK3 and HOMER2 expression in LREX′ cells; assay: Gene expression analysis (qRT-PCR) of genes co-regulated by AR and GR in LREX′ cells; assay type: cell-based
Experimental: as §1

[3] = system: VCaP xenografts; details: 10 mg/kg enzalutamide treatment; cited from earlier work
[4] = system: hormone sensitive LNCaP xenografts; details: previously shown, cited from earlier work
[5] = system: LREX′ cells; assay: RNAseq GSEA (Hallmark pathways) in LREX′ cells; assay type: cell-based, human
Experimental: (§2) LREX′ cells were plated at 50,000 cells/mL in 10 cm^2 dishes, treated with or without 10 μM of ARE-1 in fresh media, incubated 16 hours, and induced with 1 nM DHT for 8 hours. Tumor samples were homogenized mechanically. Total RNA was triazol extracted, sequenced (Illumina HiSeq2000), mapped against the human genome (hg19) with Tophat2 using Ensembl GRCh37 gene annotations. Human and mouse reads from tumor samples were parsed with BBSplit and unique reads were mapped. Htseq-count was used for exon alignment and DESeq2 for differential expression. Gene set enrichment analysis (GSEA) was performed on genes with padj<0.05 and fold change≥1.6 for cell samples and padj<0.05 for tumor samples.

[6] = system: LREX′ cells; assay: Cytotoxicity / proliferation in LREX′ cells (WST-1); assay type: cell-based; details: with or without 1 nM DHT, 100 nM dex, or both
Excerpt: (§3) The LREX′ and LNCaP/AR cell lines were gifts from Charles Sawyers (Memorial Sloan Kettering) and received in 2014 and 2007, respectively. The VCaP cell line was a gift from Kenneth Pienta (University of Michigan Medical School) and received in 2012. Cells were maintained as previously described (5, 10-13), and were used within 10 passages from thawing. Cells were validated to parental cell lines by STR profile at IDEXXX Bioresearch following experimentation and confirmed to be Mycoplasma free. WST-1 assay (Roche) was used to measure cytotoxicity. The CellTiter-Glo assay was also used in some experiments and is described when used. Long-term toxicity in VCaP cells was assayed by cell counting.

[7] = system: LREX′ tumors; assay: RNAseq GSEA of LREX′ tumor expression profiles; assay type: in vivo, mice; details: gene ontology
Experimental: as §2
(§4) Animal experiments were performed at Caltech under IACUC approval. VCaP and LREX′ cells were engrafted as 1:1 mixtures of 3×10^6 cells in Matrigel (BD Biosciences) into flanks of intact and castrated male SCID mice (Charles River), respectively. LREX′ engrafted mice received 10 mg/kg enz (oral gavage) daily. Once tumors were 100 mm^3 (0.5*l*w*w), ARE-1 was administered subcutaneously to opposing flanks in 20% DMSO:saline. For circulation studies, four C57BL6/J animals were injected subcutaneously with ARE-1 at 30 mg/kg and blood collected retroorbitally. Plasma concentrations of ARE-1 were analyzed by HPLC, area under the curve (AUC) approximated by the linear trapezoidal method, as described (12).

[8] = system: LNCaP/AR cells; assay: Cytotoxicity / proliferation in LNCaP/AR cells (WST-1, CellTiter-Glo); assay type: cell-based; details: 72 hours, compared with bicalutamide
Excerpt: as §3

[9] = system: LNCaP cells; assay: RNAseq GSEA (Hallmark pathways) in LNCaP cells; assay type: cell-based, human; details: LNCaP ARE-1/NT
[10] = system: nascent RNA in LREX′ cells; assay: Nascent RNA measurement (5-EU incorporation) in LREX′ cells; assay type: cell-based
Experimental: LREX′ cells were plated at 100,000 cells/mL in 96 well plates in RPMI 1640 (20% FBS and 1 μM enz), adhered for 24 hours, dosed with ARE-1, incubated for 48 hours. The Click-iT® RNA Alexa Fluor® 488 HCS kit was used for dye conjugation and incorporation of 5-ethynyl uridine (5-EU) was measured on a Flexstation 3 plate reader.
LREX′ cells were plated at 100,000 cells/mL in 175 cm^2 flasks, adhered 24 hours, incubated with 10 μM ARE-1 24, 48, and 72 hours, then with 300 μM 5-EU in fresh media. Cells were detached by Accumax or Accutase, and Alexa Fluor® 488 azide dye was conjugated. Cells were passed through 35 μm mesh prior to flow, sorted on a FACSCalibur instrument (Beckman-Dickinson), analyzed using FlowJo.

[11] = Circulation study of ARE-1 in C57BL6/J mice; assay type: in vivo
Experimental: as §4
(§5) Cell culture experiments represent ≥3 independent biological replicates. Sequencing analyses were duplicates for cell culture and quadruplicates for tumor samples. For xenografts, animals were randomly assigned to groups. For circulation experiments, concentrations of ARE-1 were duplicate measurements. Measurements in cell culture, animal, and immunohistochemistry experiments were assessed by Student's t-test.

[12] = system: VCaP xenografts; assay: VCaP xenografts in intact male SCID mice; assay type: in vivo
Experimental: as §4

[13] = Plasma concentration of ARE-1 in LREX′ tumor bearing SCID mice; assay type: in vivo; details: 2.5 mg/kg, terminal blood samples, linear trapezoidal method
Experimental: as §4, §5

[14] = system: VCaP cells; assay: Cytotoxicity and long-term viability (cell counting) in VCaP cells; assay type: cell-based
Excerpt: as §3

## CNC(=O)c1ccc(N2C(=S)N(c3ccc(C#N)c(C(F)(F)F)c3)C(=O)C2(C)C)cc1F [enzalutamide, reference compound]
[1]
  agonist activity (KLK3 mRNA): no agonist activity
[2]; 1 nM DHT, enzalutamide compared with ARE-1
  reduction of DHT induced transcription: more potent than ARE-1 in reducing DHT induced transcription
[3]
  response of VCaP xenografts: modest response

## CC(=O)N[C@H](CCNC(=O)c1cc(NC(=O)c2cc(NC(=O)c3cc(NC(=O)c4nccn4C)cn3C)cn2C)cn1C)C(=O)Nc1cn(C)c(C(=O)Nc2cc(C(=O)Nc3cc(C(=O)Nc4cc(C(=O)NCCCN(C)CCCNC(=O)c5cccc(C(=O)O)c5)n(C)c4)n(C)c3)n(C)c2)n1 [ARE-1]
[4]; LNCaP xenografts
  host toxicity: minimal host toxicity
[4]
  efficacy against LNCaP xenografts: effective against hormone sensitive LNCaP xenografts
[5]; LREX′ DHT + ARE-1/DHT
  NES HALLMARK APICAL JUNCTION: −2.198
  NES HALLMARK DNA REPAIR: 2.055
  NES HALLMARK INTERFERON GAMMA RESPONSE: 2.028
  NES HALLMARK MITOTIC SPINDLE: −2.302
  NES HALLMARK MYC TARGETS V1: 2.006
  NES HALLMARK OXIDATIVE PHOSPHORYLATION: 2.738
  NES HALLMARK PROTEIN SECRETION: −2.402
  NES HALLMARK UV RESPONSE UP: 2.173
[6]
  proliferation of LREX′ cells: reduced proliferation
[1]
  agonist activity (KLK3 mRNA): no agonist activity
[1]; charcoal stripped media
  baseline expression of KLK3: reduced baseline expression of KLK3
[2]; 100 nM dex, ARE-1 compared with enzalutamide
  reduction of dex induced transcription: the opposite was observed with dex induction
[2]; 10 μM ARE-1
  KLK3 and HOMER2 expression: represses KLK3 and HOMER2 expression
[7]
  Nes ADENYL NUCLEOTIDE BINDING: −4.22
  Nes CELL PROJECTION ORGANIZATION: −3.813
  Nes CELLULAR AMIDE METABOLIC PROCESS: 4.725
  Nes CHROMATIN BINDING: −3.786
  Nes DOUBLE STRANDED DNA BINDING: −4.074
  Nes MACROMOLECULAR COMPLEX BINDING: −3.726
  Nes MITOCHONDRIAL ENVELOPE: 5.17
  Nes MITOCHONDRIAL PART: 5.946
  Nes MITOCHONDRION: 6.585
  Nes MITOCHONDRION ORGANIZATION: 4.686
  Nes NUCLEIC ACID BINDING TRANSCRIPTION FACTOR ACTIVITY: −5.598
  Nes ORGANELLE INNER MEMBRANE: 4.922
  Nes ORGANONITROGEN COMPOUND BIOSYNTHETIC PROCESS: 4.815
  Nes ORGANONITROGEN COMPOUND METABOLIC PROCESS: 5.958
  Nes REGULATION OF TRANSCRIPTION FROM RNA POLYMERASE II PROMOTER: −4.438
  Nes REGULATORY REGION NUCLEIC ACID BINDING: −4.775
  Nes RIBOSOME: 4.779
  Nes SEQUENCE SPECIFIC DNA BINDING: −4.99
  Nes STRUCTURAL CONSTITUENT OF RIBOSOME: 4.741
  Nes ZINC ION BINDING: −3.923
[8]
  proliferation of LNCaP/AR cells: reduced proliferation of LNCaP/AR cells more than bicalutamide
[9]
  NES HALLMARK APOPTOSIS: 2.323
  NES HALLMARK INTERFERON GAMMA RESPONSE: 3.06
  NES HALLMARK P53 PATHWAY: 3.749
  NES HALLMARK TNFA SIGNALING VIA NFKB: 3.248
[10]
  nascent RNA (5-EU incorporation): reduced nascent RNA in LREX′ cells
[11]; 30 mg/kg subcutaneously, C57BL6/J mice, linear trapezoidal method
  AUC (plasma): 189.9 µg·h/mL
[11]; 30 mg/kg, mice
  time to recovery from weight loss: ≤ 5 days
  visible signs of distress: without visible signs of distress
  weight loss: 6%
[12]; VCaP tumor bearing animals treated with ARE-1
  toxicity (animal weights): without significant toxicity
[12]; VCaP xenografts, 5 mg/kg ARE-1 subcutaneously three times per week
  reduction of tumor growth compared to vehicle: 70%
[13]
  AUC (plasma): 25.9 µg·h/mL
[14]; long-term incubation, cell counting, compared with enzalutamide
  long-term cell viability in VCaP cells: more potent than enzalutamide and insensitive to GR activation
[14]; with or without 1 nM DHT, 100 nM dex, or both
  proliferation of VCaP cells: reduced proliferation

## C[C@]12CCC(=O)C[C@@H]1CC[C@@H]1[C@@H]2CC[C@]2(C)[C@@H](O)CC[C@@H]12 [DHT, dihydrotestosterone, reference compound]
[5]; LREX′ DHT/NT
  NES HALLMARK ANDROGEN RESPONSE: 5.031
  NES HALLMARK MYC TARGETS V1: −1.861
  NES HALLMARK MYC TARGETS V2: −1.81
  NES HALLMARK OXIDATIVE PHOSPHORYLATION: −2.126
  NES HALLMARK PROTEIN SECRETION: 2.849
  NES HALLMARK TNFA SIGNALING VIA NFKB: 2.751
  NES HALLMARK UV RESPONSE DOWN: 2.496
